The text below walks through data of US10995068B2, “Synthetic sphingolipid-like molecules, drugs, methods of their synthesis and methods of treatment” (The Regents of the University of California, priority 2015, dated 2021).

One assay deals with colon cancer cells SW620. Description: Colony formation assay, SW620. Type of assay: cell-based, human. Particulars: anchorage-independent growth, colonies counted after 12 days. The protocol: The difference in sensitivity stems from the inability of neoplastic cells to adapt to decreases of metabolism.
Cell analysis: Viability and 4F2hc expression are determined by vital dye exclusion and flow cytometry. Oxygen consumption is measured with an XF24 Extracellular Flux Analyzer (Seahorse Bioscience); values are normalized to total protein. Confocal microscopy is performed on either a Zeiss LSM780 or a Nikon Eclipse Ti; vacuolation was monitored using a Nikon TE2000-S equipped with DIC filters. Anchorage-independent growth of SW620 cells is measured in DMEM-10 containing 0.35% agarose with a 0.5% agarose bottom layer. PBMNCs are obtained from the normal blood donor program run by the CTSA-supported Institute for Clinical and Translational Science at UCI under IRB protocols 2015-1883 (Edinger) and 2001-2058 (ICTS). […] Plates were incubated at 37° C. in a humidified atmosphere containing 5% CO2 and colonies were counted after 12 days.
(§1) Cell culture and reagents. […] Cell viability was measured by vital dye exclusion using either propidium iodide or DAPI at 1 μg/ml. Analysis of cell surface 4F2hc levels with PE-conjugated anti-CD98 was restricted to viable cells as determined by DAPI exclusion. Anchorage-independent growth of SW620 cells was measured in DMEM-10 containing 0.35% low melt agarose with a 0.5% agarose bottom layer. […]

The subject of assay [1] is non-transformed murine OP9 bone marrow stromal cells and primary murine embryonic fibroblasts (MEFs). Description: Sensitivity of non-transformed cells versus cancer cell lines. The class given is cell-based. Particulars: OP9 and primary MEFs versus DLD-1, LS180, SW48, SW480, SW620, MDA-MB-231, PANC-1. The procedure: Consistent with the bioenergetic mechanism described supra, cells with a higher anabolic rate should be more sensitive to sphingolipid-like compounds. In exemplary experiments testing this mechanism, murine FL5.12 cells with different anabolic rates were treated with SH-BC-893. The anabolic rate of FL5.12 cells can be titrated by modulating the levels of their required growth factor, IL-3; comparing FL5.12 cells grown in high and low IL-3 allows the impact of elevated growth factor signaling and anabolism to be evaluated in a constant genetic background. High concentrations of IL-3 drive aerobic glycolysis and a rapid doubling time (12 h). Reducing IL-3 levels slows proliferation and increases oxidative phosphorylation without compromising cell viability (FIGS. 53A and 53B). […] Many of these cancer cell lines carry activating mutations in Ras. […]
as §1

For `CCCCCCCCc1ccc([C@H]2CCN[C@@H]2CO)cc1.Cl` [Compound 5, (2S,3R)-2-(hydroxymethyl)-3-(4-octylphenyl)Pyrrolidinium chloride], in the assay with colon cancer cells SW620, the “sensitivity in colony formation assays” value is on record as “highly sensitive”. Also, in assay [1], the “sensitivity compared with human cancer cell lines” value is “less sensitive”.
